Patent publication US12569457B2, “Coated beta hydroxybutyric acid crystal and methods for producing the same” (NANJING NUTRABUILDING BIO-TECH CO., LTD., priority 2021, dated 2026)

Test: Stability test of coated BHB free acid crystal pellets/granules vs BHB free acid crystal at 25° C./60% RH (moisture and dipolymer content)
Format: physicochemical
Procedure: The coated BHB free acid crystal pellets/granules were subjected to a controlled temperature of 25° C./60% RH. The products were subjected to stability testing at the following time intervals: 0 time, 3 months, 6 months, 9 months, and 12 months.
The preparation method of such coated BHB free acid crystal pellets/granules includes the following steps: • (1) Wet granulation: Mix 3 kg of BHB free acid crystals and 0.05 kg of microcrystalline fiber, add 0.06 kg of water for wet granulation to obtain wet materials. The stirring motor rotating speed of the wet granulator is adjusted to 45 r/min, the speed of the shearing head is 800 r/min and the feeding speed of the binder is 5 r/min; • (2) Extrusion: Extrude the wet material obtained in step (1) by the extruder with the sieve plate aperture of 0.8 mm, to obtain strip materials with the same diameter. The screw speed of the extruder is adjusted to 150 r/min. […] Obtain strip materials with the same diameter; • (3) Spheronization: Sphere the strip materials obtained in step (2) at the high speed through the spheronization device to get pellets/granules of the same size and good roundness. The rotation speed of the spheronization device is adjusted to 1000 r/min and the time of spheronization is 6 min; • (4) Drying: Dry the pellets/granules prepared in step (3) to get BHB free acid crystal pellets/granules. The drying temperature is adjusted to 35° C. and the drying time is 25 min; • (5) Coating: Coating the BHB free acid crystal pellets/granules prepared in step (4) by Wurster coater with coating material, which is dissolved in water or ethanol at a solid content of 20% for use. The air inlet speed of the Wurster coater is 25 Hz and the coating temperature is 38° C., and the feeding speed of the coating liquid is 2 r/min. Drying for 15 min after coating is completed to obtain the coated BHB free acid crystal.The coated BHB free acid crystal pellets/granules were subjected to a controlled temperature of 25° C./60% RH. The products were subjected to stability testing at the following time intervals: 0 time, 3 months, 6 months, 9 months, and 12 months.

- Dipolymer Content (0 time): 0.38%
- Moisture Content (0 time): 0.50%
- Dipolymer Content (3 months): 1.42%
- Moisture Content (3 months): 2.14%
- Dipolymer Content (6 months): 4.29%
- Moisture Content (6 months): 10.63%
- Dipolymer Content (9 months): 10.65%
- Moisture Content (9 months): 18.16%
- Dipolymer Content (12 months): 29.07%
- Moisture Content (12 months): 29.97%
SMILES: CC(O)CC(=O)O (stereo not drawn) [BHB Free Acid Crystal, beta hydroxybutyric acid]
